Measurements: patent US10065945B2, “Isoquinoline derivatives as MGAT2 inhibitors” (Merck Sharp & Dohme Corp., priority 2014, dated 2018)
Where a name gives a salt, the structure may show the parent alone.

Molecular target: MGAT2 Human (Homo sapiens (Human), UniProt Q3SYC2)
Assay: MGAT2 Human IC50
Assay type: biochemical

MGAT2 Human, sequence (Q3SYC2 whole entry): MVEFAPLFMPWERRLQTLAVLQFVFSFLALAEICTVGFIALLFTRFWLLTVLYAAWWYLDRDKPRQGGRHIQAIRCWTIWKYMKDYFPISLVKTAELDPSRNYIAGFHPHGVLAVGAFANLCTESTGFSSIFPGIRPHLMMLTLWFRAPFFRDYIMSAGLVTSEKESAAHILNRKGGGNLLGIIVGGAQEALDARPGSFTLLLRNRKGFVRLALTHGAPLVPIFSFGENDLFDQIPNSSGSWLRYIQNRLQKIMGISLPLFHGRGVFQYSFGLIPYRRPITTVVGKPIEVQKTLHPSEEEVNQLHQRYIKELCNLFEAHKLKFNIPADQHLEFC

Compound | IC50
CCCc1ccc([C@@H](C)N2CCc3ccc(S(=O)(=O)Nc4noc(C(C)(C)C)c4Br)cc3C2)cn1 [Example 43, (R)—N-(4-bromo-5-(tert-butyl)isoxazol-3-yl)-2-(1-(6-propylpyridin-3-yl)ethyl)-1,2,3,4-tetrahydroisoquinoline-7-sulfonamide] | 1.6 nM
CC(C)(C)c1onc(NS(=O)(=O)c2cnc3c(c2)CN(Cc2cc(F)cc(F)c2)CC3)c1Br [Example 44, N-(4-bromo-5-(tert-butyl)isoxazol-3-yl)-6-(3,5-difluorobenzyl)-5,6,7,8-tetrahydro-1,6-naphthyridine-3-sulfonamide Trifluoroacetate] | 118 nM
CCCc1cnc(NS(=O)(=O)c2ccc3c(c2)CN([C@H](C)c2ccc(OCC(F)(F)F)nc2)CC3)cn1 [Example 45, 7-(N-(5-propylpyrazin-2-yl)sulfamoyl)-2-((R)-1-(6-(2,2,2-trifluoroethoxy)pyridin-3-yl)ethyl)-1,2,3,4-tetrahydroisoquinolin-2-ium 2,2,2-trifluoroacetate] | 7.3 nM
CCc1cnc(NS(=O)(=O)c2ccc3c(c2)CN([C@H](C)c2ccc(OCC(F)F)nc2)CC3)cn1 [Example 46, 2-((R)-1-(6-(2,2-difluoroethoxy)pyridin-3-yl)ethyl)-7-(N-(5-ethylpyrazin-2-yl)sulfamoyl)-1,2,3,4-tetrahydroisoquinolin-2-ium 2,2,2-trifluoroacetate] | 12.7 nM
CC(C)Nc1cnc(NS(=O)(=O)c2ccc3c(c2)CN([C@H](C)c2ccc(OCC(F)(F)F)nc2)CC3)cn1 [Example 47, 7-(N-(5-(isopropylamino)pyrazin-2-yl)sulfamoyl)-2-((R)-1-(6-(2,2,2-trifluoroethoxy)pyridin-3-yl)ethyl)-1,2,3,4-tetrahydroisoquinolin-2-ium 2,2,2-trifluoroacetate] | 13.9 nM
COCCOc1ccc([C@@H](C)N2CCc3ccc(S(=O)(=O)Nc4cnc(C5CC5)cn4)cc3C2)cn1 [Example 48, 7-(N-(5-cyclopropylpyrazin-2-yl)sulfamoyl)-2-((R)-1-(6-(2-methoxyethoxy)pyridin-3-yl)ethyl)-1,2,3,4-tetrahydroisoquinolin-2-ium 2,2,2-trifluoroacetate] | 21.3 nM
COc1ccc(NS(=O)(=O)c2ccc3c(c2)CN([C@H](C)c2ccc(OCC(F)(F)F)nc2)CC3)nn1 [Example 49, (R)—N-(6-methoxypyridazin-3-yl)-2-(1-(6-(2,2,2-trifluoroethoxy)pyridin-3-yl)ethyl)-1,2,3,4-tetrahydroisoquinoline-7-sulfonamide] | 8.7 nM
C[C@H](c1ccc(OCC(F)(F)F)nc1)N1CCc2ccc(S(=O)(=O)Nc3ccc(C(C)(C)C)nn3)cc2C1 [Example 50, 7-(N-(6-(tert-butyl)pyridazin-3-yl)sulfamoyl)-2-((R)-1-(6-(2,2,2-trifluoroethoxy)pyridin-3-yl)ethyl)-1,2,3,4-tetrahydroisoquinolin-2-ium 2,2,2-trifluoroacetate] | 3.8 nM
CCOC(=O)c1noc(NS(=O)(=O)c2ccc3c(c2)CN([C@H](C)c2cc(F)cc(F)c2)CC3)n1 [Example 51, (R)-ethyl 5-(2-(1-(3,5-difluorophenyl)ethyl)-1,2,3,4-tetrahydroisoquinoline-7-sulfonamido)-1,2,4-oxadiazole-3-carboxylate] | 14 nM
C[C@H](c1cc(F)cc(F)c1)N1CCc2ccc(S(=O)(=O)Nc3nc(C(N)=O)no3)cc2C1 [Example 52, (R)-5-(2-(1-(3,5-difluorophenyl)ethyl)-1,2,3,4-tetrahydroisoquinoline-7-sulfonamido)-1,2,4-oxadiazole-3-carboxamide] | 31 nM
CCNC(=O)c1noc(NS(=O)(=O)c2ccc3c(c2)CN([C@H](C)c2cc(F)cc(F)c2)CC3)n1 [Example 53] | 7.1 nM
C[C@H](c1cc(F)cc(F)c1)N1CCc2ccc(S(=O)(=O)Nc3nc(C(=O)NCC(F)(F)F)no3)cc2C1 [Example 54] | 16 nM
C[C@H](c1cc(F)cc(F)c1)N1CCc2ccc(S(=O)(=O)Nc3nc(C(=O)N4CCC4)no3)cc2C1 [Example 55] | 3.7 nM
C[C@H](c1cc(F)cc(F)c1)N1CCc2ccc(S(=O)(=O)Nc3nc(C(=O)N(C)C)no3)cc2C1 [Example 56] | 5.7 nM
